Assay results from patent US9670462B2, “Bioactive surface for hepatocyte-based applications” (priority 2006, dated 2017).

System: hepatocytes

Row | Compound | effect on hepatocyte monolayer maintained on PET-Hybrid (soluble peptide 100 μM in culture medium) | toxicity to the hepatocytes (soluble peptide, treatment for 24 h) | morphological changes of 3D spheroids, pre-spheroid monolayer or 2D hepatocyte monolayer
1 | N=C(N)NCCC[C@H](NC(=O)CN)C(=O)NCC(=O)N[C@@H](CC(=O)O)C(=O)N[C@@H](CO)C(=O)O [GRGDS] | destabilized the hepatocyte monolayer | slight toxicity | 
2 | NCCCCCCOC1O[C@H](CO)[C@H](O)[C@H](O)[C@H]1O (stereo partly drawn) [galactose ligands, 1-O-(6′-aminohexyl)-D-galactopyranoside] |  |  | did not induce any morphological changes
